Assay results reported in patent publication US20220104481A1, “CRYOPRESERVATION OF STEM CELLS” (TiGenix, S.A.U., priority 2019, published 2022).
“Also recorded” adds a separate entry of the source.

Columns and labels:
Assay type in all cases: cell-based, human
[1] = test system: mature dendritic cells (mDC); test: Phagocytosis of Staphylococcus aureus particles by mDC co-cultured with ASCs; conditions: NAC-pretreated ASCs, non-contact co-culture (FIG. 12)
Method: After differentiation in monoculture or co-culture in vitro (the differentiation conditions, including the cytokines used, concentrations and times of differentiation, are provided in Example 7), macrophages and mDC were harvested using 0.05% Trypsin-EDTA for 10 minutes at 37° C. The phagocytic potential of polarized macrophages or mDC was assessed using pHRodo Red-conjugated S. aureus particles (Life Technologies #A10010) following manufacturer's instructions. Briefly, 50,000 mDC were transferred to a 96-well U bottom wells (Corning #3799) and the cells were rested for 60 minutes in RPMIc. Lyophilized pHRodo conjugated particles were reconstituted in 1 mL of RPMIc per vial prior to use, and particles were sonicated for 5 minutes at 20% amplitude. Then, 50 μL of pHRodo […] were added per well and the cells were incubated for 60 minutes in normoxia at 37° C. Afterwards, phagocytosis was stopped on ice and cells were washed and stained with 5 μL 7-aminoactinomycin D (7AAD) prior to FACS analysis in Fortessa cytometer (BD). Negative controls for phagocytosis were cells without pHRodo reagent. Results were analysed in FlowJo software. The intensity of the fluorescence in the PE channel is proportional to the amount of bacterial particles phagocytosed per cell.

ASCs [2] = test: ASC identity assay by flow cytometry (CD29, CD73, CD90, CD105); conditions: 6 mM NAC pretreatment; two weeks in culture post-thawing; donor A (FIG. 7)
[3] = test system: CD206 and CD163 on mature dendritic cells; test: Surface expression of phagocytic receptors CD206 and CD163 by mDC co-cultured with ASCs (flow cytometry); conditions: NAC-pretreated ASCs, donors A and B (FIGS. 13, 14)
Method: After differentiation in monoculture or co-culture in vitro (the differentiation conditions, including the cytokines used, concentrations and times of differentiation, are provided in Example 7), macrophages and mDC were harvested using 0.05% trypsin-EDTA for 10 minutes at 37° C., after supernatants were collected and frozen for future cytokine and/or HPLC analysis. After mDC were counted, they were distributed into 96-well V bottom plates for staining (Nunc #249570). Cells were incubated in Blue MACS buffer with 1% human serum for 15 minutes on ice, to block Fcγ receptor-mediated nonspecific antibody binding. Subsequently, cells were stained for 20 minutes on ice with the following antibody mixes (staining in 50 μL of 1:10 antibody dilution; except for CD64, which was 1:20 dilution): Cell viability was assessed by addition of 5 μL of 7AAD per well and staining for 10 minutes on ice, and samples were acquired in a BD Fortessa cytometer. Results were analysed in FSC Express software.

ASCs [4] = test: ASC proliferation assay: viable cell density (trypan blue count) after thaw of pretreated ASCs; conditions: for number of viable cells: ASCs pretreated with 6 mM NAC before freezing
Method: ASCs from donor A were thawed by warming the vials in a 37° C. bath and diluting the freezing medium containing DMSO with fresh complete DMEM (DMEM/F-12 media—GlutaMAX™-I, Gibco, supplemented with 100 μg/mL penicillin/streptomycin and 10% FBS). Cells were centrifuged at 450 g for 6 minutes at room temperature to eliminate leftover DMSO and plated in T-175 flasks at 20.000 cells/cm^2 in complete DMEM. 24 hours post-thaw, the cells were treated with the suitable concentrations of the compounds indicated in the table below for 24 hours: Following the pretreatment step, the medium was removed, the cells were washed with PBS and trypsinized using trypsin-EDTA 0.25% (ThermoFisher) for 8 minutes at 37° C. After trypsin inactivation with complete DMEM, cells were harvested and centrifuged prior to resuspension in freezing medium (FBS with 10% DMSO), and frozen into 500,000 or 1 million cells per vial and stored in liquid nitrogen for further use. Specifically, the cells were frozen at −80° C. for 24 hours in a Cool Cell® device (BioCision) and then transferred to a liquid nitrogen storage container. All experiments were performed in incubators and 37° C., 5% CO2. ASCs pretreated with NAC according to the methods described in Example 2 from donor A or donor B final drug substance (FDS) were thawed by warming the vials in a 37° C. bath and quickly diluting the freezing medium containing DMSO (FBS with 10% DMSO) with fresh complete DMEM. Cells were centrifuged at 450 g for 6 minutes at room temperature to eliminate leftover DMSO, and plated in P6-well plates (Falcon #353046) in triplicates at […] in 5 mL of complete DMEM per well. Cells were washed with 1×PBS and trypsinized using trypsin-EDTA 0.25% (ThermoFisher) for 8 minutes at 37° C. After trypsin inactivation using complete DMEM, cells were harvested, centrifuged and resuspended in fresh DMEM; triplicate wells were unified as a single sample for counting purposes. Cells were counted in triplicates at 24 hours, 96 hours and 7 days after plating using an Invitrogen Countess Automated Cell Counter (Invitrogen) and adding trypan blue as a viability stain (FIG. 4A). The calculation of cell density was done using the count of viable ASC (negative for trypan blue) per surface unit (cm^2).

Q: Which “ability of ASCs to increase phagocytosis potential of mDCs” value [1] does the source give for `CC(=O)N[C@@H](CS)C(=O)O` [NAC, N-Acetylcysteine] here?
A: did not alter their ability to increase the phagocytosis potential of mDCs

Q: And the “expression of ASC identity markers CD29, CD73, CD90 and CD105” value (ASCs [2])?
A: does not alter the expression of ASC identity markers

Q: And the “ASC-mediated upregulation of CD206 and CD163 on mDC” value [3]?
A: this upregulation was intact; also recorded: did not alter these effects

Q: And the “number of cells counted versus non-treated control” value (ASCs [4]; 6 mM NAC pretreatment, 24 hours and 4 days post-thaw)?
A: increased the number of cells counted at 24 hours and 4 days

Q: What about the “cell number by cell density versus non-treated” value (ASCs [4]; 6 mM NAC pretreatment, 24 hours post-seeding after thaw (FIG. 3)) of the same molecule?
A: increased cell numbers

Q: And the “cell numbers versus non-treated, two donors” value (ASCs [4]; 6 mM NAC pretreatment, donor A and donor B, from 24 hours post-seeding, maintained for a week (FIG. 5))?
A: increase in cell numbers

Q: And the “post-thaw recovery (viable adhered cell number over seeding density)” value (ASCs [4]; ASCs pretreated with 6 mM NAC (FIG. 4A), non-treated cells not recovered at 1 day)?
A: recovered after 1 day of post-thaw culture

Q: What about the “number of viable cells” value (ASCs [4]; 1 day of culture post-thaw (FIG. 4A)) of the same molecule?
A: ~5,000 cells/cm^2

Q: What about the “number of viable cells” value (ASCs [4]; 4 days of culture post-thaw (FIG. 4A)) of the same molecule?
A: ~12,500 cells/cm^2

Q: And the “improvement of growth rate relative to non-treated cells” value (ASCs [4]; ASCs pretreated with 6 mM NAC, between days 1 and 4 of post-thaw culture)?
A: about 1.25 fold

Q: What about the growth rate (ASCs [4]; ASCs pretreated with 6 mM NAC, between days 1 and 4 of post-thaw culture (FIG. 4A)) of the same molecule?
A: approximately 2500 cells/cm^2/day
